Measurements published in patent publication US20240166631A1, “COMPOUND, METHOD FOR PRODUCING AND METHOD FOR STORING COMPOUND, METHOD FOR PRODUCING TARGETING AGENT, AND COMPOSITION” (NIHON MEDI-PHYSICS CO., LTD, priority 2021, published 2024).

Assay: Evaluation of storage stability: purity of stored solid DOTAGA-DBCO by HPLC area percentage
Type: physicochemical
Settings: for long-term storage stability (in words): refrigerating or freezing conditions, after 6 months storage
Procedure: Thereafter, the brown vial containing DOTAGA-DBCO was placed under each of the conditions: room temperature (Example 1: 21 to 25° C.); high temperature (Example 2: 40° C.); refrigerating (Example 3: 5° C.); and freezing (Example 4: -20° C.), and stored for a predetermined period.
Thereafter, the colorless transparent glass vial containing DOTAGA-DBCO was placed under the condition of room temperature (Example 5: 19 to 23° C.) and stored for a predetermined period.
Subsequently, DOTAGA-DBCO obtained by drying in the same manner as in Examples 1 to 4 was put in a brown vial, and the brown vial was placed under each of the conditions: room temperature (Comparative Example 1: 21 to 25° C.); and high temperature (Comparative Example 2: 40° C.), and stored for a predetermined period.
For DOTAGA-DBCOs in each of Examples and Comparative Examples, the purity was measured by the following measurement method at each time point: at the start of storage, after 7 days storage, after 1 month storage, after 3 months storage, and after 6 months storage. The smaller deterioration in purity with respect to the purity at the start of storage, the more excellent the storage stability.
1.0 mg of the objective compound was precisely weighed. For Examples 1 and 2 and Comparative Examples 1 and 2, a mixture of 10 mmol/L ammonium formate solution (pH 3.0)/acetonitrile for liquid chromatography (95:5) was added to make an exactly 10 mL sample solution. For Examples 3 and 4, a mixture of 10 mmol/L ammonium formate solution (pH 3.0)/methanol for liquid chromatography (95:5) was added to make an exactly 10 mL sample solution. For Example 5, methanol for liquid chromatography was added to make an exactly 10 mL sample solution.
For 10 μL of each of these sample solutions, high performance liquid chromatography measurement was conducted under the following conditions. The peak area of the sample solution was measured with automatic integration method, and the amount of these compounds was determined through area percentage method. Each sample solution was prepared one time and measured 3 times. The arithmetic average value of the three measurement results was defined as purity (%). Note that, at the start of storage, each sample solution was prepared and measured one time, respectively.
• Detector (1): ultraviolet absorptiometer (measurement wavelength: 290 nm, 308 nm) • Detector (2): ACQ-QDa (Positive scan: cone voltage 15 V, capillary voltage 0.8 V; Negative scan: cone voltage 15 V, capillary voltage 0.8 V, scanning range: m/z 50 to 1200) • Column: a stainless steel tube having an inner diameter of 4.6 mm and a length of 10 cm, packed with 3.5 μm octadecylsilylated silica gel for liquid chromatography (XBridge C18) • Column temperature: maintained at a constant temperature of about 25° C.
• Mobile phase: (Mobile phase A) 10 mmol/L ammonium formate solution (pH 3.0) and (Mobile phase B) acetonitrile were used for liquid feeding while controlling the concentration gradient (vol %) in the order of the following (i) to (v). The flow rate of each mobile phase was 1 mL/min.

[1] = storage conditions: room temperature
[2] = stored at 5° C. (refrigerating)

O=C(O)CN1CCN(CC(=O)O)CCN(C(CCC(=O)NCCC(=O)N2Cc3ccccc3C#Cc3ccccc32)C(=O)O)CCN(CC(=O)O)CC1 (stereo not shown) [Example 5, DOTAGA-DBCO]
Purity (%) of compound at storage start [1]: 97.5% | Purity (%) of compound after 1 month (stored at room temperature): 96.0% | Purity (%) of compound after 7 days (stored at room temperature): 97.2%

O=C(O)CN1CCN(CC(=O)O)CCN(C(CCC(=O)NCCC(=O)N2Cc3ccccc3C#Cc3ccccc32)C(=O)O)CCN(CC(=O)O)CC1 (stereo not shown) [Example 3, DOTAGA-DBCO]
long-term storage stability (in words): purity at the start of storage is maintained even after 6 months storage | Purity (%) of compound at storage start (storage conditions: 5° C. (refrigerating)): 96.9% | Purity (%) of compound after 1 month [2]: 97.0% | Purity (%) of compound after 3 months [2]: 93.2% | Purity (%) of compound after 6 months [2]: 96.8% | Purity (%) of compound after 7 days [2]: 97.4%

O=C(O)CN1CCN(CC(=O)O)CCN(C(CCC(=O)NCCC(=O)N2Cc3ccccc3C#Cc3ccccc32)C(=O)O)CCN(CC(=O)O)CC1 (stereo not shown) [Example 2, DOTAGA-DBCO]
Purity (%) of compound at storage start (storage conditions: 40° C.): 97.6% | Purity (%) of compound after 1 month (stored at 40° C.): 96.7% | Purity (%) of compound after 3 months (stored at 40° C.): 93.9% | Purity (%) of compound after 6 months (stored at 40° C.): 92.0% | Purity (%) of compound after 7 days (stored at 40° C.): 96.9%

O=C(O)CN1CCN(CC(=O)O)CCN(C(CCC(=O)NCCC(=O)N2Cc3ccccc3C#Cc3ccccc32)C(=O)O)CCN(CC(=O)O)CC1 (stereo not shown) [Comparative Example 1, DOTAGA-DBCO]
Purity (%) of compound at storage start [1]: 96.4% | Purity (%) of compound after 1 month (stored at room temperature): 90.9% | Purity (%) of compound after 7 days (stored at room temperature): 95.5%

O=C(O)CN1CCN(CC(=O)O)CCN(C(CCC(=O)NCCC(=O)N2Cc3ccccc3C#Cc3ccccc32)C(=O)O)CCN(CC(=O)O)CC1 (stereo not shown) [Example 4, DOTAGA-DBCO]
long-term storage stability (in words): purity at the start of storage is maintained even after 6 months storage | Purity (%) of compound at storage start (storage conditions: −20° C. (freezing)): 96.9% | Purity (%) of compound after 1 month (stored at −20° C. (freezing)): 97.6% | Purity (%) of compound after 3 months (stored at −20° C. (freezing)): 93.5% | Purity (%) of compound after 6 months (stored at −20° C. (freezing)): 95.5% | Purity (%) of compound after 7 days (stored at −20° C. (freezing)): 97.4%

O=C(O)CN1CCN(CC(=O)O)CCN(C(CCC(=O)NCCC(=O)N2Cc3ccccc3C#Cc3ccccc32)C(=O)O)CCN(CC(=O)O)CC1 (stereo not shown) [Comparative Example 2, DOTAGA-DBCO]
Purity (%) of compound at storage start (storage conditions: 40° C.): 96.4% | Purity (%) of compound after 1 month (stored at 40° C.): 52.2% | Purity (%) of compound after 7 days (stored at 40° C.): 86.1%

O=C(O)CN1CCN(CC(=O)O)CCN(C(CCC(=O)NCCC(=O)N2Cc3ccccc3C#Cc3ccccc32)C(=O)O)CCN(CC(=O)O)CC1 (stereo not shown) [Example 1, DOTAGA-DBCO]
Purity (%) of compound at storage start [1]: 97.6% | Purity (%) of compound after 1 month (stored at room temperature): 96.9% | Purity (%) of compound after 3 months (stored at room temperature): 95.7% | Purity (%) of compound after 6 months (stored at room temperature): 93.6% | Purity (%) of compound after 7 days (stored at room temperature): 97.1%
